Like-named read-outs stand apart in the source and are kept apart here.
Experiments:
[1] = design: method as in earlier work; conditions: cited from earlier work
[2] = cited from earlier work
[3] = Ligand protonation constants, potentiometric titration in NaCl; assay type: physicochemical; conditions: T = 298.1 K
Procedure: (§1) Potentiometric measurements were carried out at T = 298.1 ± 0.1 K in thermostatted cells. The setup consisted of a Metrohm model 888 Titrando apparatus controlled by Metrohm TiAMO 1.2 software equipped with a combined gel electrode (VWR model 662 1759). Estimated precision was 0.2 mV and 0.003 ml for the electromotive force and titrant volume readings, respectively. All the potentiometric titrations were carried out under magnetic stirring and bubbling purified presaturated N2 through the solution to exclude O2 and CO2.
(§2) A 30 ml solution containing each ligand ([L] = 5 – 10 mM), NaCl and HCl was titrated with standard NaOH solutions. For the zinc(II)/ligand systems, the titrant solutions consisted of different amounts of ligand ([L] = 5 − 10 mM), zinc(II) ([Zn] = 0.5—5 mM) and a suitable amount of HCl and NaCl. All the measurements were carried out with an excess of the ligand, with respect to zinc(II) and at different zinc(II):ligand molar ratios. The selection of ratios investigated was determined by simulating titrations using Hyperquad Simulation and Speciation computer software (HySS)[41]. [Zn] and [L] were negligible compared to the background electrolyte concentrations. […] To account for the influence of zinc(II) hydrolysis in the zinc(II)/ligand systems, zinc(II) titrations were carried out separately at each ionic strength to determine the hydroxide constants so that these constants could be included in the equilibrium model used to refine the titration data. In these titrations, the zinc(II) concentration in the analyte solution was 0.7 mM.
(§3) Before each experiment, independent titrations of strong acid solutions with standard base were carried out under the same medium and ionic strength conditions as the systems to be investigated, with the aim of determining the electrode potential (E^0’) using GLEE software. In this way, the pH scale used was the […], pH = -log [H]^+, where [H]^+ is the free proton concentration. For each titration, approximately 80 to 100 data points were collected. The equilibrium state during titrations was checked by confirming the time required to reach equilibrium.
(§4) The software program Hyperquad was used to determine the equilibrium model and to calculate pKa and stability constants from the potentiometric data set[43]. For each set of pKa constants or zinc(II):ligand ratio studied, at least two repeat titrations were performed. The titration curves for each system were treated as a single set when refining the stability constants. This meant that the refinement procedure was run on both curves at the same time to derive a single set of constants. The error reported on the stability constants is the standard deviation given in the Hyperquad output file. Examples of Hyperquad files for the zinc(II)/PYR system are provided on the Zenodo repository (https://doi.org/10.5281/zenodo.4641710).
(§5) The ionic strength dependence of the stability constants was studied with the modified version of the Extended Debye–Hückel equation[28]. The Monte Carlo method, as described by Hu et al.[43], was used to estimate 95% confidence intervals on the parameters of ionic strength dependence; for each species, predicted stability constants were resampled using an inverse of the cumulative normal distribution function to give sets of simulated data from which the unknown parameters were optimized. An example Excel calculation file for the application of the modified version of the Extended Debye–Hückel equation to the zinc(II)/PYR system (including the calculation of error on parameters of ionic strength dependence) has been uploaded to the Zenodo repository (https://doi.org/10.5281/zenodo.4641710).
(§6) To quantify the improvement of using a direct vs. indirect method for studying ionic strength dependence, the Davies equation (Eq. 3) was applied to the zinc(II)/PYR data. Speciation calculations for a [Zn] = 10^–6 M and [L] = 10^–5 M system at infinite dilution were conducted with the aid of HySS. […]

[4] = Zinc(II)-ligand stability constants, potentiometric titration in NaCl; assay type: binding
Procedure: as §1, §2, §3, §4, §5, §6

[5] = parameter of ionic strength dependence
[6] = parameter of ionic strength dependence, NaCl

CC(=O)N(O)CCCCCNC(=O)CCC(=O)N(O)CCCCCNC(=O)CCC(=O)N(O)CCCCCN [DFOB, desferrioxamine B]
log β, 2H+ + L3− = H2L− ([1]; 0.05 M NaCl, T = 298.1 K): 20.94 ± 0.09
log β, 3H+ + L3− = H3L ([1]; 0.05 M NaCl, T = 298.1 K): 30.05 ± 0.12
log β, 4H+ + L3− = H4L+ ([1]; 0.05 M NaCl, T = 298.1 K): 38.83 ± 0.14
log β, H+ + L3− = HL2− ([1]; 0.05 M NaCl, T = 298.1 K): 11.07 ± 0.07
log β, 2H+ + L3− = H2L− ([1]; 0.15 M NaCl, T = 298.1 K): 20.25 ± 0.06
log β, 3H+ + L3− = H3L ([1]; 0.15 M NaCl, T = 298.1 K): 29.10 ± 0.09
log β, 4H+ + L3− = H4L+ ([1]; 0.15 M NaCl, T = 298.1 K): 37.46 ± 0.13
log β, H+ + L3− = HL2− ([1]; 0.15 M NaCl, T = 298.1 K): 10.74 ± 0.04
log β, 2H+ + L3− = H2L− ([1]; 0.30 M NaCl, T = 298.1 K): 19.84 ± 0.04
log β, 3H+ + L3− = H3L ([1]; 0.30 M NaCl, T = 298.1 K): 28.61 ± 0.07
log β, 4H+ + L3− = H4L+ ([1]; 0.30 M NaCl, T = 298.1 K): 37.00 ± 0.10
log β, H+ + L3− = HL2− ([1]; 0.30 M NaCl, T = 298.1 K): 10.36 ± .02
log β, 2H+ + L3− = H2L− ([1]; 0.70 M NaCl, T = 298.1 K): 19.77 ± 0.04
log β, 3H+ + L3− = H3L ([1]; 0.70 M NaCl, T = 298.1 K): 28.60 ± 0.08
log β, 4H+ + L3− = H4L+ ([1]; 0.70 M NaCl, T = 298.1 K): 36.97 ± 0.16
log β, H+ + L3− = HL2− ([1]; 0.70 M NaCl, T = 298.1 K): 10.35 ± 0.02
log β, 2H+ + L3− = H2L− ([1]; 1.00 M NaCl, T = 298.1 K): 19.77 ± 0.08
log β, 3H+ + L3− = H3L ([1]; 1.00 M NaCl, T = 298.1 K): 28.57 ± 0.12
log β, 4H+ + L3− = H4L+ ([1]; 1.00 M NaCl, T = 298.1 K): 36.92 ± 0.14
log β, H+ + L3− = HL2− ([1]; 1.00 M NaCl, T = 298.1 K): 10.14 ± 0.06
logβ^0, 2H+ + L3− = H2L− ([1]; intrinsic, T = 298.1 K): 21.530 ± 0.006
logβ^0, 3H+ + L3− = H3L ([1]; intrinsic, T = 298.1 K): 30.691 ± 0.012
logβ^0, 4H+ + L3− = H4L+ ([1]; intrinsic, T = 298.1 K): 39.250 ± 0.023
logβ^0, H+ + L3− = HL2− ([1]; intrinsic, T = 298.1 K): 11.491 ± 0.003
C, 3H+ + L3− = H3L [1, 5]: 0.194 ± 0.012
log β, Zn2+ + 2H+ + L3- = ZnH2L+ ([2]; 0.05 M NaCl, T = 298.1 K): 29.30±0.13
log β, Zn2+ + H+ + L3- = ZnHL ([2]; 0.05 M NaCl, T = 298.1 K): 21.55±0.11
log β, Zn2+ + L3- = ZnL- ([2]; 0.05 M NaCl, T = 298.1 K): 11.67±0.06
log β, Zn2+ + 2H+ + L3- = ZnH2L+ ([2]; 0.15 M NaCl, T = 298.1 K): 27.81±0.05
log β, Zn2+ + H+ + L3- = ZnHL ([2]; 0.15 M NaCl, T = 298.1 K): 19.85±0.04
log β, Zn2+ + L3- = ZnL- ([2]; 0.15 M NaCl, T = 298.1 K): 9.91±0.02
log β, Zn2+ + 2H+ + L3- = ZnH2L+ ([2]; 0.30 M NaCl, T = 298.1 K): 27.42±0.08
log β, Zn2+ + H+ + L3- = ZnHL ([2]; 0.30 M NaCl, T = 298.1 K): 19.85±0.06
log β, Zn2+ + L3- = ZnL- ([2]; 0.30 M NaCl, T = 298.1 K): 9.97±0.04
log β, Zn2+ + 2H+ + L3- = ZnH2L+ ([2]; 0.70 M NaCl, T = 298.1 K): 27.19±0.12
log β, Zn2+ + H+ + L3- = ZnHL ([2]; 0.70 M NaCl, T = 298.1 K): 19.34±0.09
log β, Zn2+ + L3- = ZnL- ([2]; 0.70 M NaCl, T = 298.1 K): 9.39±0.05
log β, Zn2+ + 2H+ + L3- = ZnH2L+ ([2]; 1.00 M NaCl, T = 298.1 K): 27.25±0.08
log β, Zn2+ + H+ + L3- = ZnHL ([2]; 1.00 M NaCl, T = 298.1 K): 19.38±0.06
log β, Zn2+ + L3- = ZnL- ([2]; 1.00 M NaCl, T = 298.1 K): 9.32±0.04
decrease of the 1:1 zinc(II) stability constant ([2]; between 0.05 and 1.00 M NaCl): 21%
logβ0, Zn2+ + 2H+ + L3- = ZnH2L+ ([2]; intrinsic, T = 298.1 K): 29.872±0.027
logβ0, Zn2+ + H+ + L3- = ZnHL ([2]; intrinsic, T = 298.1 K): 22.105±0.026
logβ0, Zn2+ + L3- = ZnL- ([2]; intrinsic, T = 298.1 K): 12.027±0.039
C, Zn2+ + 2H+ + L3- = ZnH2L+ [2, 5]: 0.009±0.051
C, Zn2+ + H+ + L3- = ZnHL [2, 5]: -0.075±0.053
C, Zn2+ + L3- = ZnL- [2, 5]: -0.486±0.077

CC(=O)NO [AHA, acetohydroxamic acid]
log β, H+ + L = HL ([3]; 0.05 M NaCl): 9.28 ± 0.01
log β, H+ + L = HL ([3]; 0.15 M NaCl): 9.06 ± 0.01
log β, H+ + L = HL ([3]; 0.30 M NaCl): 9.10 ± 0.01
log β, H+ + L = HL ([3]; 0.70 M NaCl): 9.04 ± 0.01
log β, H+ + L = HL ([3]; 1.00 M NaCl): 9.07 ± 0.01
logβ^0, H+ + L = HL ([3]; intrinsic, modified Extended Debye–Hückel fit (direct)): 9.376 ± 0.001
C, H+ + L = HL [3, 6]: 0.085 ± 0.001
log β, Zn2+ + 2L = ZnL2 ([4]; 0.05 M NaCl, T = 298.1 K): 9.60±0.01
log β, Zn2+ + 2OH- + L- = ZnOH2L- ([4]; 0.05 M NaCl, T = 298.1 K): -13.60±0.04
log β, Zn2+ + L = ZnL (1:1) ([4]; 0.05 M NaCl, T = 298.1 K): 5.32±0.01
log β, Zn2+ + OH- + L- = ZnOHL ([4]; 0.05 M NaCl, T = 298.1 K): -3.22±0.04
log β, Zn2+ + 2L = ZnL2 ([4]; 0.15 M NaCl, T = 298.1 K): 9.16±0.01
log β, Zn2+ + 2OH- + L- = ZnOH2L- ([4]; 0.15 M NaCl, T = 298.1 K): -13.65±0.01
log β, Zn2+ + L = ZnL (1:1) ([4]; 0.15 M NaCl, T = 298.1 K): 5.10±0.01
log β, Zn2+ + OH- + L- = ZnOHL ([4]; 0.15 M NaCl, T = 298.1 K): -3.64±0.02
log β, Zn2+ + 2L = ZnL2 ([4]; 0.30 M NaCl, T = 298.1 K): 9.11±0.01
log β, Zn2+ + 2OH- + L- = ZnOH2L- ([4]; 0.30 M NaCl, T = 298.1 K): -13.21±0.07
log β, Zn2+ + L = ZnL (1:1) ([4]; 0.30 M NaCl, T = 298.1 K): 5.01±0.03
log β, Zn2+ + OH- + L- = ZnOHL ([4]; 0.30 M NaCl, T = 298.1 K): -4.22±0.08
log β, Zn2+ + 2L = ZnL2 ([4]; 0.70 M NaCl, T = 298.1 K): 8.79±0.01
log β, Zn2+ + 2OH- + L- = ZnOH2L- ([4]; 0.70 M NaCl, T = 298.1 K): -14.07±0.02
log β, Zn2+ + L = ZnL (1:1) ([4]; 0.70 M NaCl, T = 298.1 K): 4.87±0.01
log β, Zn2+ + OH- + L- = ZnOHL ([4]; 0.70 M NaCl, T = 298.1 K): -4.07±0.02
stability of the 1:1 zinc(II) species below/above the equivalent PYR and GLY complexes ([4]; 1:1 zinc(II) complex): 3.5–4 logβ units
log β, Zn2+ + 2L = ZnL2 ([4]; 1.00 M NaCl, T = 298.1 K): 8.79±0.01
log β, Zn2+ + 2OH- + L- = ZnOH2L- ([4]; 1.00 M NaCl, T = 298.1 K): -13.96±0.01
log β, Zn2+ + L = ZnL (1:1) ([4]; 1.00 M NaCl, T = 298.1 K): 4.82±0.01
log β, Zn2+ + OH- + L- = ZnOHL ([4]; 1.00 M NaCl, T = 298.1 K): -4.41±0.04
decrease of the 1:1 zinc(II) stability constant ([4]; between 0.00 and 1.00 M NaCl): 0.79 logβ units
decrease of the 1:1 zinc(II) stability constant ([4]; between 0.05 and 1.00 M NaCl): 14%
logβ0, Zn2+ + 2L = ZnL2 ([4]; intrinsic, modified Extended Debye–Hückel fit (direct), T = 298.1 K): 10.021±0.001
C, Zn2+ + 2L = ZnL2 [4, 6]: -0.052±0.002
C, Zn2+ + 2OH- + L- = ZnOH2L- [4, 6]: 0.571±0.017
C, Zn2+ + OH- + L- = ZnOHL [4, 6]: 1.2095±0.027
